This passage reports MIC results from DBAASP.

In brackets after ≈: the same amount, converted by molar mass. Several values for one entry are separate records, joined by “and”; a condition that tells them apart may be missing. Equal values may be shown once.

Some test systems named below: Escherichia coli 170; Acinetobacter baumannii; Staphylococcus aureus; Pseudomonas aeruginosa.
What all share (test): ≥ marks a high value that may be exact or a test limit, other limits are often not marked, values filed in µg/mL are converted to µM
Test [1] concerns Escherichia coli ATCC 10536.
Test [2] concerns Staphylococcus aureus ATCC 9144.
Test [3] has as its system Escherichia coli DH5alpha.
Test [4] has as its system Cronobacter muytjensii ATCC 51329.
Test [5] relates to Staphylococcus aureus SA113.
Test [6] relates to Cronobacter sakazakii DSM 4485.
The subject of test [7] is Staphylococcus aureus RN4220.
In test [8] the test system is Staphylococcus aureus NCTC 8325-4.
Test [9] deals with Escherichia coli NCIMB 11843.
The test system of test [10] is Klebsiella pneumoniae NCIMB 13218.
The test system of test [11] is Pseudomonas fluorescens NCIMB 9046.
The test system of test [12] is Staphylococcus aureus Newman.
The subject of test [13] is Staphylococcus aureus RF122.
In test [14] the test system is Cronobacter sakazakii ATCC BAA-894.
For test [15], the system named is Salmonella enterica subsp. enterica serovar Typhimurium LT2.
Test [16] deals with Cronobacter sakazakii DPC 6440.
Test [17] has as its system Staphylococcus aureus 90857.
The test system of test [18] is Pseudomonas syringae pv. syringae DSM 10604.
The subject of test [19] is Xanthomonas vesicatoria DSM 50861.
Test [20] has as its system Clavibacter michiganensis subsp. michiganensis DSM 46294.
Test [21] relates to Pseudomonas syringae pv. tomato DC3000.
For test [22], the system named is Pectobacterium carotovorum subsp. carotovorum DSM 30168.
Test [23] relates to Pseudomonas corrugata DSM 7228.
The test system of test [24] is Klebsiella pneumoniae 913.
The test system of test [25] is Enterobacter cloacae 6780.
Test [26] concerns Enterobacter cloacae 2524.
Test [27] has as its system Pseudomonas aeruginosa 4677.
Test [28] deals with Escherichia coli ATCC 25922.
Test [29] concerns Mycobacterium tuberculosis H37Rv.
Test [30] has as its system Enterococcus faecalis ATCC 19433.
Test [31] has as its system Staphylococcus aureus ATCC 25923.

The term MIC denotes the lowest concentration found to suppress growth. A low value points to greater potency. Turning to `CC[C@H](C)[C@H](NC(=O)[C@@H](NC(=O)[C@@H]1CCCN1C(=O)[C@H](CO)NC(=O)[C@H](C)NC(=O)[C@H](CCCCN)NC(=O)[C@H](CCCCN)NC(=O)[C@H](Cc1ccccc1)NC(=O)[C@H](C)NC(=O)[C@H](CCCCN)NC(=O)[C@H](CCCCN)NC(=O)[C@H](Cc1ccccc1)NC(=O)[C@H](CCCCN)NC(=O)[C@H](CCCCN)NC(=O)[C@H](CCCN=C(N)N)NC(=O)[C@H](Cc1ccccc1)NC(=O)[C@H](CCCN=C(N)N)NC(=O)[C@H](CCCCN)NC(=O)[C@H](Cc1ccccc1)NC(=O)[C@H](CCCN=C(N)N)NC(=O)CN)C(C)C)C(=O)N1CCC[C@H]1C(=O)N[C@@H](CC(C)C)C(=O)N[C@@H](CC(C)C)C(=O)N[C@@H](Cc1cnc[nH]1)C(=O)N[C@@H](CC(C)C)C(N)=O` [GRFKRFRKKFKKAFKKASPVIPLLHL], the MIC in [1] is 2.7 µM and 7.2 µM; in test [2] it was 2.7 µM (≈ 8.48 µg/mL); in test [3], 2.9 µM (≈ 9.11 µg/mL).

As for `CC[C@H](C)[C@H](N)C(=O)N[C@@H](CCCCN)C(=O)N[C@@H](Cc1cnc[nH]1)C(=O)N[C@@H](CCC(N)=O)C(=O)NCC(=O)N[C@@H](CC(C)C)C(=O)N1CCC[C@H]1C(=O)N[C@@H](CCC(N)=O)C(=O)N[C@@H](CCC(=O)O)C(=O)N[C@@H](CCC(=O)O)C(=O)O` [IKHQGLPQEE], the MIC in test [4], in test [5], in test [6], in [7], in [8] and in test [9] was not below 2500 µM in each case. In addition, the MIC in test [10], in test [11], in [12], in test [13], in test [14] and in test [15] was not below 2500 µM each time. The same compound had an MIC in test [16] not below 2500 µM.

`CC[C@H](C)[C@H](NC(=O)[C@H](CC(C)C)NC(=O)[C@H](CCCCN)NC(=O)[C@@H](NC(=O)[C@@H](NC(=O)[C@H](CC(C)C)NC(=O)[C@H](CCCCN)NC(=O)[C@H](CC(C)C)NC(=O)[C@@H](NC(=O)[C@H](CCCCN)NC(=O)[C@@H](NC(=O)[C@H](CC(C)C)NC(=O)[C@H](CCCCN)NC(=O)[C@H](CCCN=C(N)N)NC(=O)[C@H](CCCN=C(N)N)NC(=O)[C@@H](N)CCCCN)[C@@H](C)CC)[C@@H](C)CC)[C@@H](C)CC)[C@@H](C)CC)C(=O)N[C@@H](CCCN=C(N)N)C(=O)N[C@@H](CCCCN)C(=O)N[C@@H](CCCCN)C(=O)N[C@@H](CCCN=C(N)N)C(N)=O` [KRRKLIKILKLIIKLIRKKR]: the MIC in test [17] worked out at 2 µM (≈ 5.11 µg/mL); in [18] it was 0.391 µM (≈ 1 µg/mL); in test [19], 0.0391 µM (≈ 0.1 µg/mL); in test [20], 0.0391 µM (≈ 0.1 µg/mL); in [21], 0.977 µM (≈ 2.5 µg/mL); in [22], 3.91 µM (≈ 10 µg/mL). Moreover, the MIC in test [23] amounted to 0.977 µM (≈ 2.5 µg/mL).

Turning to `CC(C)C[C@H](NC(=O)[C@H](CCCCN)NC(=O)[C@H](CCC(N)=O)NC(=O)[C@@H](NC(=O)[C@@H](NC(=O)[C@H](CC(N)=O)NC(=O)[C@H](C)NC(=O)[C@@H](NC(=O)[C@@H](N)CCCCN)C(C)C)[C@@H](C)O)C(C)C)C(=O)N[C@@H](CCCCN)C(=O)N[C@@H](CCCN=C(N)N)C(=O)N[C@@H](CCCCN)C(=O)N[C@@H](C)C(=O)N[C@@H](CCCCN)C(=O)N[C@@H](CC(N)=O)C(=O)N[C@@H](C)C(=O)N[C@H](C(=O)N[C@@H](C)C(=O)O)C(C)C` [KVANTVQKLKRKAKNAVA], the MIC in test [24] was not below 50 µM; in the test on Escherichia coli 170, not below 50 µM; in [25], not below 50 µM; in test [26] it was 12.5 µM (≈ 24.6 µg/mL); in test [27] it was not below 50 µM; in test [28], more than 50 µM. The compound also came in with an MIC against Acinetobacter baumannii not below 50 µM.

With `CC[C@H](C)[C@H](NC(=O)[C@H](CC(C)C)NC(=O)[C@H](CCCN=C(N)N)NC(=O)[C@H](CCCCN)NC(=O)[C@@H](NC(=O)[C@@H](NC(=O)[C@H](CCCCN)NC(=O)[C@@H](NC(=O)[C@H](CCCCN)NC(=O)[C@H](CCCCN)NC(=O)[C@H](CCCCN)NC(=O)[C@@H](N)CCCN=C(N)N)[C@@H](C)CC)[C@@H](C)CC)[C@@H](C)CC)C(N)=O` [RKKKIKIIKRLI], the MIC is not below 62.5 µM in test [17]; 0.163 µM (≈ 0.25 µg/mL) in [18]; 1.63 µM (≈ 2.5 µg/mL) in [19]; 3.25 µM (≈ 5 µg/mL) in [20]; 6.51 µM (≈ 9.99 µg/mL) in test [21]; 6.51 µM (≈ 9.99 µg/mL) in test [22]. This compound registered an MIC in test [23] of 1.63 µM (≈ 2.5 µg/mL).

In the case of `CC(C)C[C@H](NC(=O)[C@H](CC(C)C)NC(=O)[C@H](CC(N)=O)NC(=O)[C@H](CCC(=O)O)NC(=O)[C@H](CC(N)=O)NC(=O)[C@H](C)NC(=O)[C@@H](N)C(C)C)C(=O)N[C@@H](CCCN=C(N)N)C(=O)O` [VANENLLR], the MIC is not below 1250 µM in test [4]; not below 2500 µM in test [5]; not below 1250 µM in test [6]; not below 2500 µM in [7]; not below 1250 µM in [8]; not below 2500 µM in [9]. Further, the MIC in [10], in test [11], in [12], in test [13], in test [14] and in test [15] was not below 2500 µM throughout. The MIC in test [16] is not below 1250 µM.

As for `CC[C@H](C)[C@H](NC(=O)[C@H](CCCN=C(N)N)NC(=O)[C@H](Cc1c[nH]c2ccccc12)NC(=O)[C@@H](NC(=O)[C@@H](NC(=O)[C@H](CC(C)C)NC(=O)[C@H](Cc1c[nH]c2ccccc12)NC(=O)[C@H](CCCN=C(N)N)NC(=O)[C@H](CCC(N)=O)NC(=O)[C@@H](N)C(C)C)[C@@H](C)CC)C(C)C)C(=O)N[C@@H](CCCN=C(N)N)C(=O)N[C@@H](CCCCN)C(N)=O` [VQRWLIVWRIRK], the MIC in test [29] was 17.7 µM (≈ 29.3 µg/mL); in test [30], not below 38.7 µM; in the test with Staphylococcus aureus it was 3.02 µM (≈ 5 µg/mL); in test [31] it was 77.4 µM (≈ 128 µg/mL); with Pseudomonas aeruginosa it was 11.5 µM (≈ 19 µg/mL).
